# Data as given in US20050250784A1 (Miikana Therapeutics Corporation, priority 2004, published 2005).
# How the values were obtained:
# [1] = test system: HDAC (HeLa cell nuclear extract, a mosaic of HDAC enzymes); assay: In vitro fluorescent histone deacetylase assay (Biomol HDAC fluorescent activity kit); format: biochemical; conditions: compound concentration 100 μM; HeLa cell nuclear extract as HDAC source; substrate 50 μM, 10 min, room temperature
# Method: Histone deacetylase (HDAC) activity assays were performed using the HDAC fluorescent activity assay/drug discovery kit (Biomol Research Laboratories, Plymouth Meeting, Pa.) essentially according to the manufacturer's instructions. The included HeLa cell nuclear extract, which contains a mosaic of HDAC enzymes and other nuclear factors, was used as the source of HDAC activity. The final substrate concentration in the assay mixture was 50 μM. The reaction was allowed to proceed for 10 min at room temperature before stopping the reaction. Test compounds were prepared as 20 mM stock solutions in DMSO (Molecular Biology grade, Sigma-Aldrich Co., St. Louis, Mo.) and stored at −70° C. Serial dilutions of test compounds were prepared in assay buffer immediately prior to testing. DMSO was determined in a separate trial to have no significant effect on the activity of this assay at concentrations up to 5%; the final DMSO concentration in the wells was no more than 2% and therefore DMSO effects were safely neglected. Assays were performed in white polystyrene 96-well half-area assay plates (Corning, Corning, N.Y.) and measured on a Wallace 1420 fluorescent plate reader (Wallac Oy, Turku, Finland) with an excitation wavelength of 355 nm, an emission wavelength of 460 nm, and a 1 sec signal averaging time.
# MCF7 cells = assay: Whole cell cytotoxicity assay: Sulforhodamine B; format: cell-based, Human; conditions: Homo sapiens; compound concentration 100 μM; MCF7 cell growth, 48 hours with drug, SRB staining
# Method: The following procedure can be found on the Developmental Therapeutics Program NCI/NIH web site at http://dtp.nci.nih.gov/brancehes/btb/ivclsp.html.
# 1. Human tumor cell lines of HT29, A549 and MCF7 are grown in DMEM containing 10% fetal bovine serum and 2 mM L-glutamine. Cells are plated in a 96 well plate at a density of 5000 cells per well in 100 uL of growth medium and incubated at 37° C., 5% CO2, for 24 hours prior to the addition of experimental compounds.
# 2. Experimental drugs are solubilized in DMSO for a final concentration of 20 mM immediately prior to use. Drugs are further diluted in growth media for a total of nine drug concentrations and a growth control. At the 24 hour time point, one plate of cells is fixed in situ with TCA as a measurement of the cell population at time zero, or the time of drug addition.
# 3. The plates are further incubated with drug for an additional 48 hours.
# 4. The cells are fixed in situ by gently aspirating off the culture media and then adding 50 uL of ice cold 10% TCA per well and incubated at 4° C. for 60 minutes. The plates are washed with tap water five times and allowed to air dry for 5 minute.
# 5. 50 ul of a 0.4% (w/v) Sulforhodamine B solution in 1% (v/v) acetic acid is added per well and incubated for 30 minutes at room temperature.
# 6. Following staining, plates are washed five times with 1% acetic acid to remove any unbound dye and then allowed to air dry for 5 minutes.
# 7. Stain is solubilized with 100 uL of 10 mM Tris pH 10.5 per well and placed on an orbital rotator for 5 minutes.
# 8. Absorbance is read at 570 nm.
Structure (SMILES),% inhibition HDAC @ 100 μM [1] [%],inhibition at 100 µM (MCF7 cells) [%]
"Cc1cccc(Cl)c1S(=O)(=O)N1CCN(c2ncc(C(=O)NO)s2)CC1 [Example 238, 2-[4-(2-methyl-6-chlorophenylsulfonyl)-piperazin-1-yl]-thiazole-5-carboxylic acid hydroxyamide]",100,
"O=C(NO)c1cnc(N2CCN(S(=O)(=O)c3cc4ccccc4s3)CC2)s1 [Example 243, 2-[4-(2-benzothiphenesulfonyl)-piperazin-1-yl]-thiazole-5-carboxylic acid hydroxyamide]",99,
"CSc1nccc(-c2ccc(S(=O)(=O)N3CCN(c4ncc(C(=O)NO)s4)CC3)s2)n1 [Example 245, 2-[4-(2-{2-methylthiopyrimidine-4-yl}-5-thiophenesulfonyl)-piperazin-1-yl]-thiazole-5-carboxylic acid hydroxyamide]",95,
"O=C(NO)c1cnc(N2CCN(S(=O)(=O)c3ccc4nsnc4c3)CC2)s1 [Example 246, 2-[4-(2,1,3-benzothiadiazole-5-sulfonyl)-piperazin-1-yl]-thiazole-5-carboxylic acid hydroxyamide]",98,
"O=C(NO)c1cnc(N2CCN(S(=O)(=O)c3ccc(Oc4ccccc4)nc3)CC2)s1 [Example 247, 2-[4-(2-phenoxypyridine-5-sulfonyl)-piperazin-1-yl]-thiazole-5-carboxylic acid hydroxyamide]",96,
"O=C(NO)c1cnc(N2CCN(S(=O)(=O)c3cccc(-c4ccccc4)c3)CC2)s1 [Example 251, 2-[4-(3-biphenylsulfonyl)piperazin-1-yl]-thiazole-5-carboxylic acid hydroxyamide]",100,
"CCCCS(=O)(=O)N1CCN(c2ncc(C(=O)NO)s2)CC1 [Example 253, 2-[4-(n-butylsulfonyl)-piperazin-1-yl]-thiazole-5-carboxylic acid hydroxyamide]",94,
"O=C(NO)c1cnc(N2CCN(S(=O)(=O)c3ccc(Br)s3)CC2)s1 [Example 255, 2-{4-[(5-bromothien-2-yl)sulfonyl]piperazin-1-yl}-N-hydroxy-1,3-thiazole-5-carboxamide]",29,
"O=C(NO)c1cnc(N2CCN(S(=O)(=O)c3ccc(-c4ccc5c(c4)OCO5)cc3)CC2)s1 [Example 260, 2-(4-{[4-(1,3-benzodioxol-5-yl)phenyl]sulfonyl}piperazin-1-yl)-1,3-thiazole-5-carboxylic acid hydroxyamide]",99,
O=C(NO)c1cnc(N2CCN(S(=O)(=O)c3ccc(-c4cccc(F)c4)cc3)CC2)s1 [Example 261],95,
O=C(NO)c1cnc(N2CCN(S(=O)(=O)c3ccc(-c4cccc(CN5CCCCC5)c4)cc3)CC2)s1 [Example 273],100,
"O=C(NO)c1cnc(N2CCN(S(=O)(=O)c3ccc(-c4ccsc4CN4CCCC4)cc3)CC2)s1 [Example 282, 2-(4-[4-{(2-(pyrrolidin-1-ylmethyl)-thien-3-yl)phenylsulfonyl}]piperazin-1-yl)-1,3-thiazole-5-carboxylic acid hydroxyamide]",99,
CN1CCN(Cc2cccc(-c3ccc(S(=O)(=O)N4CCN(c5ncc(C(=O)NO)s5)CC4)cc3)c2)CC1 [Example 284],100,
"CCN(C)Cc1cccc(-c2ccc(S(=O)(=O)N3CCN(c4ncc(C(=O)NO)s4)CC3)cc2)c1 [Example 286, 2-{4-[(3′-[ethyl(methyl)amino]methyl]-1,1′-biphenylsulfonyl]piperazin-1-yl}-1,3-thiazole-5-carboxylic acid hydroxyamide]",99,
"CC(C)N(C)Cc1cccc(-c2ccc(S(=O)(=O)N3CCN(c4ncc(C(=O)NO)s4)CC3)cc2)c1 [Example 287, 2-{4-[(3′-[isopropyl(methyl)amino]methyl]-1,1′-biphenylsulfonyl]-piperazin-1-yl}-1,3-thiazole-5-carboxylic acid hydroxyamide]",99,
O=C(NO)c1cnc(N2CCN(S(=O)(=O)c3ccc(-c4ccc(CN5CCCC5)s4)cc3)CC2)s1 [Example 288],99,
O=C(NO)c1cnc(N2CCN(S(=O)(=O)c3ccc(-c4sccc4CN4CCCC4)cc3)CC2)s1 [Example 289],99,
"O=C(NO)c1cnc(N2CCN(S(=O)(=O)c3ccc(-c4cncnc4)cc3)CC2)s1 [Example 291, 2-[4-{(4-pyrimidine)benzenesulfonyl}-piperazin-1-yl]-thiazole-5-carboxylic acid hydroxyamide]",99,
CC(=O)Nc1ccc(-c2ccc(S(=O)(=O)N3CCN(c4ncc(C(=O)NO)s4)CC3)cc2)cc1 [Example 292],100,
"O=C(NO)c1cnc(N2CCN(S(=O)(=O)c3ccc(-c4cccnc4)cc3)CC2)s1 [Example 293, 2-[4-{(3-pyrido)benzenesulfonyl}-piperazin-1-yl]-thiazole-5-carboxylic acid hydroxyamide]",100,
"O=C(NO)c1cnc(N2CCN(S(=O)(=O)CCc3ccccc3)CC2)s1 [Example 294, 2-[4-(phenethylsulfonyl)piperazin-1-yl]-thiazole-5-carboxylic acid hydroxyamide]",98,
CN(C)Cc1ccc(S(=O)(=O)N2CCN(c3ncc(C(=O)NO)s3)CC2)cc1 [Example 295],98,
CN(C)Cc1cccc(S(=O)(=O)N2CCN(c3ncc(C(=O)NO)s3)CC2)c1 [Example 297],99,
O=C(NO)c1cnc(N2CCN(S(=O)(=O)c3cccc(CN4CCCC4)c3)CC2)s1 [Example 298],98,
O=C(NO)c1cnc(N2CCN(S(=O)(=O)c3ccc(CN4CCCC4)cc3)CC2)s1 [Example 305],99,
O=C(NO)c1cnc(N2CCN(S(=O)(=O)c3ccc(CN4CCOCC4)cc3)CC2)s1 [Example 306],99,
"O=C(NO)c1cnc(N2CCN(S(=O)(=O)C(F)(F)F)CC2)s1 [Example 331, 2-{4-[(trifluoromethyl)sulfonyl]piperazin-1-yl}-1,3-thiazole-5-carboxylic acid hydroxyamide]",,76
"CCS(=O)(=O)N1CCN(c2ncc(C(=O)NO)s2)CC1 [Example 332, 2-{4-[ethylsulfonyl]piperazin-1-yl}-1,3-thiazole-5-carboxylic acid hydroxyamide]",,30
